From ChEMBL document CHEMBL3045309, “Synthesis and cardiovascular activity of difluro-substituted hexahydroquinoline” (2008)

What was measured:
[1] = system: Thoracic artery; experiment: Inhibition of potassium chloride-induced contraction in Rattus norvegicus albino (rat) thoracic artery at 10^-5 mol/l after 10 min; format: functional
[2] = system: Ileum; experiment: Inhibition of barium chloride-induced contraction inRattus norvegicus albino (rat) ileum at 10^-5 mol/l after 10 min; format: functional

| SMILES | inhibition at 10 µM [1] | inhibition at 10 µM [2] |
| --- | --- | --- |
| COC(=O)C1=C(C)NC(C)=C(C(=O)OCCN(C)Cc2ccccc2)C1c1cccc([N+](=O)[O-])c1 (stereo unspecified) [NICARDIPINE] | 15.9% | 70% |
| CCOC(=O)C1=C(C)NC2=C(C(=O)C(C)(C)CC2)C1c1cc(F)ccc1F (stereo unspecified) | 21.4% | 86.8% |
| CCN(CC)C(=O)C1=C(C)NC2=C(C(=O)CC(C)(C)C2)C1c1cccc(F)c1F (stereo unspecified) | 31.5% | 51.3% |
| COC(=O)C1=C(C)NC2=C(C(=O)CC(C)(C)C2)C1c1c(F)cccc1F (stereo unspecified) | – | 74.6% |
| CCN(CC)C(=O)C1=C(C)NC2=C(C(=O)C(C)(C)CC2)C1c1cccc(F)c1F (stereo unspecified) | 37% | 54.2% |
| COC(=O)C1=C(C)NC2=C(C(=O)C(C)(C)CC2)C1c1c(F)cccc1F (stereo unspecified) | 23.6% | 79.4% |
